Source: ChEMBL document CHEMBL1147881, “Synthesis and herbicidal activity of novel pyrazolo[3,4-d]pyrimidin-4-one derivatives containing aryloxyphenoxypropionate moieties” (2007)

How the values were obtained:
Type in all cases: functional
Brassica napus [1] = assay: Herbicidal activity against rape assessed as inhibition of root growth at 100 mg/L relative to control
Brassica napus [2] = assay: Herbicidal activity against rape assessed as inhibition of root growth at 10 mg/L relative to control
Echinochloa crus-galli [3] = assay: Herbicidal activity against barnyard grass assessed as inhibition of root growth at 100 mg/L relative to control
Echinochloa crus-galli [4] = assay: Herbicidal activity against barnyard grass assessed as inhibition of root growth at 10 mg/L relative to control
Brassica napus [5] = assay: Herbicidal activity against rape assessed as inhibition of stalk growth at 100 mg/L relative to control
Brassica napus [6] = assay: Herbicidal activity against rape assessed as inhibition of stalk growth at 10 mg/L relative to control
Echinochloa crus-galli [7] = assay: Herbicidal activity against barnyard grass assessed as inhibition of stalk growth at 100 mg/L relative to control
Echinochloa crus-galli [8] = assay: Herbicidal activity against barnyard grass assessed as inhibition of stalk growth at 10 mg/L relative to control

Q: What does the source list for CCCOC(=O)C(C)Oc1ccc(Oc2nc3c(c(SC)nn3-c3ccccc3)c(=O)n2C(=O)Nc2ccccc2Cl)cc1 (stereo not drawn)?
A: inhibition at 100 µg/mL (Brassica napus [1]): 36.7%; inhibition at 10 µg/mL (Brassica napus [2]): 5.5%; inhibition at 100 µg/mL (Echinochloa crus-galli [3]): 64.3%; inhibition at 10 µg/mL (Echinochloa crus-galli [4]): 53.4%; inhibition at 100 µg/mL (Brassica napus [5]): 8.5%; inhibition at 10 µg/mL (Brassica napus [6]): 10.6%; inhibition at 100 µg/mL (Echinochloa crus-galli [7]): 25.8%; inhibition at 10 µg/mL (Echinochloa crus-galli [8]): 25.8%

Q: With COC(=O)C(C)Oc1ccc(Oc2nc3c(c(SC)nn3-c3ccccc3)c(=O)n2C(=O)Nc2ccccc2)cc1 (stereo not drawn) as the compound, how does the inhibition at 100 µg/mL (Brassica napus [1]) read?
A: Its inhibition at 100 µg/mL is 96.1%.

Q: What about the inhibition at 10 µg/mL (Brassica napus [2]) of the same compound?
A: Its inhibition at 10 µg/mL is 40.2%.

Q: What about the inhibition at 100 µg/mL (Echinochloa crus-galli [3]) of the same compound?
A: The inhibition at 100 µg/mL was 93.5%.

Q: And the inhibition at 10 µg/mL (Echinochloa crus-galli [4])?
A: Its inhibition at 10 µg/mL is 63%.

Q: And the inhibition at 100 µg/mL (Brassica napus [5])?
A: The inhibition at 100 µg/mL was 76.9%.

Q: What about the inhibition at 10 µg/mL (Brassica napus [6]) of the same compound?
A: The inhibition at 10 µg/mL was 20.5%.

Q: What about the inhibition at 100 µg/mL (Echinochloa crus-galli [7]) of the same compound?
A: Its inhibition at 100 µg/mL is 68.9%.

Q: And the inhibition at 10 µg/mL (Echinochloa crus-galli [8])?
A: The inhibition at 10 µg/mL was 44.8%.

Q: Which results are given for CCOC(=O)C(C)Oc1ccc(Oc2nc3c(c(SC)nn3-c3ccccc3)c(=O)n2C(=O)Nc2ccccc2)cc1 (stereo not drawn)?
A: inhibition at 100 µg/mL (Brassica napus [1]): 86.1%; inhibition at 10 µg/mL (Brassica napus [2]): 57.4%; inhibition at 100 µg/mL (Echinochloa crus-galli [3]): 88.5%; inhibition at 10 µg/mL (Echinochloa crus-galli [4]): 57.7%; inhibition at 100 µg/mL (Brassica napus [5]): 46.2%; inhibition at 10 µg/mL (Brassica napus [6]): 12.9%; inhibition at 100 µg/mL (Echinochloa crus-galli [7]): 32.3%; inhibition at 10 µg/mL (Echinochloa crus-galli [8]): 12.9%

Q: For COC(=O)C(C)Oc1ccc(Oc2nc3c(c(S(C)(=O)=O)nn3-c3ccccc3)c(=O)n2C(=O)Nc2ccccc2)cc1 (stereo not drawn), which inhibition at 100 µg/mL (Brassica napus [1]) is on record?
A: Its inhibition at 100 µg/mL is 80.4%.

Q: And the inhibition at 10 µg/mL (Brassica napus [2])?
A: The inhibition at 10 µg/mL was 25%.

Q: What about the inhibition at 100 µg/mL (Echinochloa crus-galli [3]) of the same compound?
A: The inhibition at 100 µg/mL was 93.3%.

Q: And the inhibition at 10 µg/mL (Echinochloa crus-galli [4])?
A: The inhibition at 10 µg/mL was 66.7%.

Q: And the inhibition at 100 µg/mL (Brassica napus [5])?
A: The inhibition at 100 µg/mL was 48.9%.

Q: What about the inhibition at 10 µg/mL (Brassica napus [6]) of the same compound?
A: Its inhibition at 10 µg/mL is 13.3%.

Q: What about the inhibition at 100 µg/mL (Echinochloa crus-galli [7]) of the same compound?
A: Its inhibition at 100 µg/mL is 31.6%.

Q: What about the inhibition at 10 µg/mL (Echinochloa crus-galli [8]) of the same compound?
A: Its inhibition at 10 µg/mL is 5.3%.

Q: Which inhibition at 100 µg/mL (Brassica napus [1]) does the source give for COC(=O)C(C)Oc1ccc(Oc2nc3c(c(S(C)(=O)=O)nn3-c3ccccc3)c(=O)n2C(=O)Nc2ccccc2F)cc1 (stereo not drawn) here?
A: The inhibition at 100 µg/mL was 28%.

Q: What about the inhibition at 10 µg/mL (Brassica napus [2]) of the same compound?
A: The inhibition at 10 µg/mL was 16.3%.

Q: What about the inhibition at 100 µg/mL (Echinochloa crus-galli [3]) of the same compound?
A: Its inhibition at 100 µg/mL is 53.3%.

Q: And the inhibition at 10 µg/mL (Echinochloa crus-galli [4])?
A: The inhibition at 10 µg/mL was 33.3%.

Q: And the inhibition at 100 µg/mL (Brassica napus [5])?
A: The inhibition at 100 µg/mL was 0%.

Q: And the inhibition at 10 µg/mL (Brassica napus [6])?
A: The inhibition at 10 µg/mL was 0%.

Q: What about the inhibition at 100 µg/mL (Echinochloa crus-galli [7]) of the same compound?
A: The inhibition at 100 µg/mL was -21%.

Q: What about the inhibition at 10 µg/mL (Echinochloa crus-galli [8]) of the same compound?
A: The inhibition at 10 µg/mL was 10.5%.

Q: For CCOC(=O)C(C)Oc1ccc(Oc2nc3c(c(S(C)(=O)=O)nn3-c3ccccc3)c(=O)n2C(=O)Nc2cccc(C)c2)cc1 (stereo not drawn), which inhibition at 100 µg/mL (Brassica napus [1]) is on record?
A: Its inhibition at 100 µg/mL is 98%.

Q: And the inhibition at 10 µg/mL (Brassica napus [2])?
A: The inhibition at 10 µg/mL was 51%.

Q: What about the inhibition at 100 µg/mL (Echinochloa crus-galli [3]) of the same compound?
A: Its inhibition at 100 µg/mL is 95.6%.

Q: And the inhibition at 10 µg/mL (Echinochloa crus-galli [4])?
A: Its inhibition at 10 µg/mL is 54.3%.

Q: What about the inhibition at 100 µg/mL (Brassica napus [5]) of the same compound?
A: Its inhibition at 100 µg/mL is 74.4%.

Q: And the inhibition at 10 µg/mL (Brassica napus [6])?
A: Its inhibition at 10 µg/mL is 17.9%.

Q: What about the inhibition at 100 µg/mL (Echinochloa crus-galli [7]) of the same compound?
A: Its inhibition at 100 µg/mL is 51.7%.

Q: And the inhibition at 10 µg/mL (Echinochloa crus-galli [8])?
A: Its inhibition at 10 µg/mL is 3.4%.

Q: With CCOC(=O)C(C)Oc1ccc(Oc2nc3c(c(SC)nn3-c3ccccc3)c(=O)n2C(=O)Nc2cccc(C)c2)cc1 (stereo not drawn) as the compound, how does the inhibition at 100 µg/mL (Brassica napus [1]) read?
A: The inhibition at 100 µg/mL was 97%.

Q: What about the inhibition at 10 µg/mL (Brassica napus [2]) of the same compound?
A: Its inhibition at 10 µg/mL is 46.5%.

Q: And the inhibition at 100 µg/mL (Echinochloa crus-galli [3])?
A: Its inhibition at 100 µg/mL is 88.5%.

Q: What about the inhibition at 10 µg/mL (Echinochloa crus-galli [4]) of the same compound?
A: The inhibition at 10 µg/mL was 59.6%.

Q: And the inhibition at 100 µg/mL (Brassica napus [5])?
A: Its inhibition at 100 µg/mL is 63.5%.

Q: And the inhibition at 10 µg/mL (Brassica napus [6])?
A: The inhibition at 10 µg/mL was 9.6%.

Q: What about the inhibition at 100 µg/mL (Echinochloa crus-galli [7]) of the same compound?
A: The inhibition at 100 µg/mL was 0%.

Q: What about the inhibition at 10 µg/mL (Echinochloa crus-galli [8]) of the same compound?
A: The inhibition at 10 µg/mL was -12.9%.

Q: How did the inhibition at 100 µg/mL (Brassica napus [1]) turn out when CCOC(=O)C(C)Oc1ccc(Oc2nc3c(c(SCc4ccccc4)nn3-c3ccccc3)c(=O)n2C(=O)Nc2cccc(C)c2)cc1 (stereo not drawn) was run?
A: The inhibition at 100 µg/mL was 32.2%.

Q: What about the inhibition at 10 µg/mL (Brassica napus [2]) of the same compound?
A: The inhibition at 10 µg/mL was 24.4%.

Q: And the inhibition at 100 µg/mL (Echinochloa crus-galli [3])?
A: The inhibition at 100 µg/mL was 61.9%.

Q: And the inhibition at 10 µg/mL (Echinochloa crus-galli [4])?
A: Its inhibition at 10 µg/mL is 33.3%.

Q: What about the inhibition at 100 µg/mL (Brassica napus [5]) of the same compound?
A: The inhibition at 100 µg/mL was 10.6%.

Q: What about the inhibition at 10 µg/mL (Brassica napus [6]) of the same compound?
A: Its inhibition at 10 µg/mL is -2.1%.

Q: And the inhibition at 100 µg/mL (Echinochloa crus-galli [7])?
A: Its inhibition at 100 µg/mL is -6.4%.

Q: What about the inhibition at 10 µg/mL (Echinochloa crus-galli [8]) of the same compound?
A: Its inhibition at 10 µg/mL is -6.4%.

Q: Which results are given for CCOC(=O)COc1ccc(Oc2nc3c(c(SCc4ccccc4)nn3-c3ccccc3)c(=O)n2C(=O)Nc2cccc(C)c2)cc1?
A: inhibition at 100 µg/mL (Brassica napus [1]): 64.1%; inhibition at 10 µg/mL (Brassica napus [2]): 20.6%; inhibition at 100 µg/mL (Echinochloa crus-galli [3]): 75.5%; inhibition at 10 µg/mL (Echinochloa crus-galli [4]): 66.7%; inhibition at 100 µg/mL (Brassica napus [5]): 24%; inhibition at 10 µg/mL (Brassica napus [6]): 20%; inhibition at 100 µg/mL (Echinochloa crus-galli [7]): -10.5%; inhibition at 10 µg/mL (Echinochloa crus-galli [8]): 5.3%

Q: With CCCOC(=O)C(C)Oc1ccc(Oc2nc3c(c(S(C)(=O)=O)nn3-c3ccccc3)c(=O)n2C(=O)Nc2ccccc2Cl)cc1 (stereo not drawn) as the compound, how does the inhibition at 100 µg/mL (Brassica napus [1]) read?
A: Its inhibition at 100 µg/mL is 67.4%.

Q: And the inhibition at 10 µg/mL (Brassica napus [2])?
A: The inhibition at 10 µg/mL was 17.4%.

Q: What about the inhibition at 100 µg/mL (Echinochloa crus-galli [3]) of the same compound?
A: Its inhibition at 100 µg/mL is 80%.

Q: And the inhibition at 10 µg/mL (Echinochloa crus-galli [4])?
A: Its inhibition at 10 µg/mL is 50%.

Q: And the inhibition at 100 µg/mL (Brassica napus [5])?
A: The inhibition at 100 µg/mL was 42.2%.

Q: And the inhibition at 10 µg/mL (Brassica napus [6])?
A: The inhibition at 10 µg/mL was -17.8%.

Q: What about the inhibition at 100 µg/mL (Echinochloa crus-galli [7]) of the same compound?
A: The inhibition at 100 µg/mL was 23.3%.

Q: And the inhibition at 10 µg/mL (Echinochloa crus-galli [8])?
A: Its inhibition at 10 µg/mL is 16.7%.

Q: What does the source list for CCOC(=O)C(C)Oc1ccc(Oc2nc3c(c(S(=O)(=O)Cc4ccccc4)nn3-c3ccccc3)c(=O)n2C(=O)Nc2cccc(C)c2)cc1 (stereo not drawn)?
A: inhibition at 100 µg/mL (Brassica napus [1]): 34.8%; inhibition at 10 µg/mL (Brassica napus [2]): 9.8%; inhibition at 100 µg/mL (Echinochloa crus-galli [3]): 72.5%; inhibition at 10 µg/mL (Echinochloa crus-galli [4]): 50%; inhibition at 100 µg/mL (Brassica napus [5]): 6.7%; inhibition at 10 µg/mL (Brassica napus [6]): 6.7%; inhibition at 100 µg/mL (Echinochloa crus-galli [7]): 16.7%; inhibition at 10 µg/mL (Echinochloa crus-galli [8]): 13.3%
